Measured values reported in PubChem BioAssay AID2060889 (Molecular Pharmacology Branch, DTP, NCI, 2025).

Tested on: LG0567-F671-PDC complex spheroids viability
Experiment: Anticancer human tumor LG0567-F671-PDC patient-derived lung adenocarcinoma cell line growth inhibition [RAS]
Conditions: for IC50: curve of first compound; for viability, T/C: stronger effect = lower value
In short: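 Agents were tested in combination matrices in half-log decrements from a top concentration at or near clinical Cmax (10 microM if undetermined). Targets were multi-cell spheroids of tumour lines plus HUVEC and MSC stromal cells.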
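Further: spheroids exposed to compound for seven days before readout.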
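Wherever IC50 is given: luminescence signal used as a proxy for viable cells.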

Question: Which IC50 (second compound 0.000949 µM) does the source give for `CC1(C)CCC(Nc2ncc(C(F)(F)F)c(-c3c[nH]c4c(P(C)(C)=O)c(C#N)ccc34)n2)CN1` (configuration not stated) + CCn1c(-c2cccnc2C(C)OC)c2c3cc(ccc31)N1CCOC(CC(NC(=O)C(C(C)C)N(C)C(=O)C3(F)CCN(C(=O)C#CC(C)(C)N(C)C)CC3)C(=O)N3CCCC(N3)C(=O)OCC(C)(C)C2)C1 here?
Answer: < 0.949 nM

Question: And the IC50 (second compound 0.003 µM)?
Answer: < 0.949 nM

Question: What about the IC50 (second compound 0.00949 µM) of the same molecule?
Answer: < 0.949 nM

Question: What about the IC50 (second compound 0.03 µM) of the same molecule?
Answer: < 0.949 nM

Question: And the IC50 (second compound 0.0949 µM)?
Answer: < 0.949 nM

Question: And the IC50 (second compound 0.3 µM)?
Answer: < 0.949 nM

Question: And the viability, T/C (second compound 0.000949 µM, first compound 0.000949 µM)?
Answer: 12.7%

Question: What about the viability, T/C (second compound 0.000949 µM, first compound 0.003 µM) of the same molecule?
Answer: 12.4%

Question: What about the viability, T/C (second compound 0.000949 µM, first compound 0.00949 µM) of the same molecule?
Answer: 13.2%

Question: What about the viability, T/C (second compound 0.000949 µM, first compound 0.03 µM) of the same molecule?
Answer: 13.5%

Question: What about the viability, T/C (second compound 0.000949 µM, first compound 0.0949 µM) of the same molecule?
Answer: 14.6%

Question: And the viability, T/C (second compound 0.000949 µM, first compound 0.3 µM)?
Answer: 14.8%

Question: And the viability, T/C (second compound 0.003 µM, first compound 0.000949 µM)?
Answer: 12.1%

Question: And the viability, T/C (second compound 0.003 µM, first compound 0.003 µM)?
Answer: 13.2%

Question: What about the viability, T/C (second compound 0.003 µM, first compound 0.00949 µM) of the same molecule?
Answer: 12.7%

Question: What about the viability, T/C (second compound 0.003 µM, first compound 0.03 µM) of the same molecule?
Answer: 12.8%

Question: What about the viability, T/C (second compound 0.003 µM, first compound 0.0949 µM) of the same molecule?
Answer: 15.4%

Question: What about the viability, T/C (second compound 0.003 µM, first compound 0.3 µM) of the same molecule?
Answer: 14.4%

Question: What about the viability, T/C (second compound 0.00949 µM, first compound 0.000949 µM) of the same molecule?
Answer: 10.9%

Question: And the viability, T/C (second compound 0.00949 µM, first compound 0.003 µM)?
Answer: 11.9%

Question: And the viability, T/C (second compound 0.00949 µM, first compound 0.00949 µM)?
Answer: 12.1%

Question: What about the viability, T/C (second compound 0.00949 µM, first compound 0.03 µM) of the same molecule?
Answer: 13.2%

Question: And the viability, T/C (second compound 0.00949 µM, first compound 0.0949 µM)?
Answer: 14%

Question: What about the viability, T/C (second compound 0.00949 µM, first compound 0.3 µM) of the same molecule?
Answer: 15.2%

Question: What about the viability, T/C (second compound 0.03 µM, first compound 0.000949 µM) of the same molecule?
Answer: 10.8%

Question: And the viability, T/C (second compound 0.03 µM, first compound 0.003 µM)?
Answer: 12.1%

Question: What about the viability, T/C (second compound 0.03 µM, first compound 0.00949 µM) of the same molecule?
Answer: 12.3%

Question: And the viability, T/C (second compound 0.03 µM, first compound 0.03 µM)?
Answer: 12.8%

Question: And the viability, T/C (second compound 0.03 µM, first compound 0.0949 µM)?
Answer: 13.3%

Question: And the viability, T/C (second compound 0.03 µM, first compound 0.3 µM)?
Answer: 13.2%

Question: And the viability, T/C (second compound 0.0949 µM, first compound 0.000949 µM)?
Answer: 10.3%

Question: What about the viability, T/C (second compound 0.0949 µM, first compound 0.003 µM) of the same molecule?
Answer: 9.49%

Question: What about the viability, T/C (second compound 0.0949 µM, first compound 0.00949 µM) of the same molecule?
Answer: 11.1%

Question: What about the viability, T/C (second compound 0.0949 µM, first compound 0.03 µM) of the same molecule?
Answer: 10.3%

Question: What about the viability, T/C (second compound 0.0949 µM, first compound 0.0949 µM) of the same molecule?
Answer: 11.1%

Question: And the viability, T/C (second compound 0.0949 µM, first compound 0.3 µM)?
Answer: 10.7%

Question: What about the viability, T/C (second compound 0.3 µM, first compound 0.000949 µM) of the same molecule?
Answer: 7.95%

Question: What about the viability, T/C (second compound 0.3 µM, first compound 0.003 µM) of the same molecule?
Answer: 7.87%

Question: What about the viability, T/C (second compound 0.3 µM, first compound 0.00949 µM) of the same molecule?
Answer: 7.86%

Question: What about the viability, T/C (second compound 0.3 µM, first compound 0.03 µM) of the same molecule?
Answer: 8.99%

Question: What about the viability, T/C (second compound 0.3 µM, first compound 0.0949 µM) of the same molecule?
Answer: 9.92%

Question: What about the viability, T/C (second compound 0.3 µM, first compound 0.3 µM) of the same molecule?
Answer: 10.7%
